Experimental data taken from paper PMC9951859, “Investigation of α,ω-Disubstituted Polyamine-Cholic Acid Conjugates Identifies Hyodeoxycholic and Chenodeoxycholic Scaffolds as Non-Toxic, Potent Antimicrobials” (Antibiotics, 2023).
In brackets after ≈: the same amount, converted by molar mass. Several values for one entry are separate records, joined by “and”; a condition that tells them apart may be missing. Equal entries are not always repeated. Entries after “also recorded” stand apart in the source; their conditions may differ. Where two headings read alike, the source gives them in different places.

What was measured:
[1] = tested on: S. aureus MRSA (CF-Marseille); test: Real time growth curves, S. aureus MRSA (CF-Marseille); type: cell-based, Staphylococcus aureus; conditions: BHI, 1 to 19 h, at 3.2 μM (4 µg/mL) and 12.7 μM (16 µg/mL)
Experimental: (§1) Solutions of compound 7e at concentrations of 2, 4 and 16 µg/mL were tested each in triplicate against S. aureus ATCC 25923, S. aureus MRSA (CF-Marseille) and Bacillus cereus ATCC 11778. Typically, in a 96 well plate was placed 10 µL of 40, 80 and 320 µg/mL stock solutions of compound 7e as well as 190 µL of a 5 × 10^5 CFU/mL of the selected bacterial suspension in brain heart infusion (BHI) broth. Positive controls containing only 200 µL of a 5 × 10^5 CFU/mL of bacterial suspension in BHI and negative controls containing only 200 µL of BHI broth were added. The plate was incubated at 37 °C in a TECAN Spark Reader […] and real time bacterial growth was followed with OD590 nm measurements every 10 min during 19 h.

S. aureus ATCC 25923 [2] = test: Real time growth curves, S. aureus ATCC 25923; type: cell-based, Staphylococcus aureus
Experimental: as §1

[3] = tested on: Candida albicans ATCC 90028; test: Antimicrobial MIC assay (CO-ADD) against C. albicans; type: cell-based; conditions: mean (n = 2)
Description: (§2) Antimicrobial evaluation against S. aureus (MRSA) (ATCC 43300), E. coli (ATCC 25922), K. pneumoniae (ATCC 700603), A. baumannii (ATCC 19606), C. albicans (ATCC 90028), and C. neoformans (ATCC 208821) was undertaken at the Community for Open Antimicrobial Drug Discovery at The University of Queensland (Australia) according to their standard protocols as reported previously.

[4] = tested on: Bacillus cereus ATCC 11778; test: Real time growth curves, Bacillus cereus; type: cell-based
Experimental: as §1

[5] = tested on: S. aureus MRSA (CF-Marseille); test: Minimum bactericidal concentration test, S. aureus MRSA (CF-Marseille); type: cell-based, Staphylococcus aureus
Experimental: (§3) A pure culture of a specified microorganism was grown overnight, then diluted in growth-supporting broth (typically Mueller Hinton II broth) to a concentration between 1 × 10^5 and 1 × 10^6 CFU/mL. A stock dilution of the antimicrobial test compound was made at approximately 100 times the expected, previously determined MIC. Further 1:1 dilution was made in 96 well microtiter plates. All dilutions of the test compound were inoculated with equal volumes of the specified microorganism (typically 100 µL). […] An aliquot of the positive control was plated and used to establish a baseline concentration of the microorganism used. The microtiter plates were then incubated at 37 °C for 24 h. Turbidity indicates growth of the microorganism, and the MIC is the lowest concentration where no growth was visually observed. To determine the minimum bactericidal concentration (MBC), the dilution representing the MIC and at least two of the more concentrated test product dilutions was plated on a solidified agar plate to determine the bacterial viability. The MBC is the lowest concentration where no growth is encountered when compared to the MIC dilution.

E. coli ATCC 25922 = test: Antibiotic enhancement of erythromycin; type: cell-based, Escherichia coli; conditions: erythromycin at 2 μg/mL
Experimental: (§4) Restoring enhancer concentrations were determined with an inoculum of 5 × 10^5 CFU in […] of MH broth containing two-fold serial dilutions of each derivative in the presence of either doxycycline or erythromycin at 2 μg/mL. […] These measurements were independently repeated in triplicate.

[6] = tested on: Acinetobacter baumannii ATCC 19606; test: Antimicrobial MIC assay (CO-ADD) against A. baumannii; type: cell-based
Description: as §2

[7] = Cytotoxicity assay on HEK293; type: cell-based, human; conditions: human, concentration at 50% cytotoxicity on HEK293, mean (n = 2), top dose tested 32 μg/mL
Experimental: (§5) Cytotoxicity assays were conducted using the protocols previously reported.

[8] = tested on: Pseudomonas aeruginosa ATCC 27853; test: Antimicrobial MIC assay (CO-ADD) against P. aeruginosa; type: cell-based
[9] = tested on: Cryptococcus neoformans ATCC 208821; test: Antimicrobial MIC assay (CO-ADD) against C. neoformans; type: cell-based
Description: as §2

P. aeruginosa ATCC 27853 = test: Antibiotic enhancement of doxycycline; type: cell-based, Pseudomonas aeruginosa; conditions: doxycycline at 2 μg/mL
Experimental: as §4

[10] = tested on: Klebsiella pneumoniae ATCC 700603; test: Antimicrobial MIC assay (CO-ADD) against K. pneumoniae; type: cell-based
Description: as §2

[11] = tested on: Staphylococcus aureus ATCC 43300 (MRSA); test: Antimicrobial MIC assay (CO-ADD) against S. aureus MRSA; type: cell-based; conditions: Staphylococcus aureus, read-out: MIC S.a.
Description: as §2

[12] = tested on: S. aureus MRSA (CF-Marseille); test: Broth microdilution MIC (CA-SFM), S. aureus MRSA (CF-Marseille); type: cell-based; conditions: Staphylococcus aureus, 18 h
Experimental: (§6) Additional antimicrobial evaluation against S. aureus (ATCC 25923), S. aureus MRSA (CF-Marseille) and Bacillus cereus (ATCC 11778) was determined in microplates using the standard broth dilution method in accordance with the recommendations of the Comité de l’AntibioGramme de la Société Française de Microbiologie (CA-SFM). Briefly, the minimal inhibitory concentrations (MICs) were determined with an inoculum of 10^5 CFU in 200 µL of MHB containing two-fold serial dilutions of each drug. […] To determine all MICs, the measurements were independently repeated in triplicate.

[13] = tested on: Bacillus cereus ATCC 11778; test: Minimum bactericidal concentration test, Bacillus cereus; type: cell-based
Experimental: as §3

human red blood cells = test: Hemolytic assay; type: cell-based; conditions: concentration at 10% hemolytic activity on human red blood cells, mean (n = 2), top dose tested 32 μg/mL
Experimental: Hemolytic assays were conducted using the protocols previously reported.

[14] = tested on: Escherichia coli ATCC 25922; test: Antimicrobial MIC assay (CO-ADD) against E. coli; type: cell-based
Description: as §2

S. aureus ATCC 25923 [15] = test: Broth microdilution MIC (CA-SFM), S. aureus ATCC 25923; type: cell-based; conditions: Staphylococcus aureus, ATCC25923; classical microdilution, S. aureus ATCC 25923, 18 h at 37 °C
Experimental: as §6

S. aureus ATCC 25923 [16] = test: Minimum bactericidal concentration test, S. aureus ATCC 25923; type: cell-based, Staphylococcus aureus
Experimental: as §3

[17] = tested on: Bacillus cereus ATCC 11778; test: Broth microdilution MIC (CA-SFM), Bacillus cereus; type: cell-based; conditions: ATCC11778; classical microdilution, Bacillus cereus ATCC 11778, 18 h at 37 °C
Experimental: as §6

S. aureus = test: ATP release bioluminescence assay; type: cell-based, Staphylococcus aureus; conditions: followed over 30 min after exposure, CTAB (1%) positive control
Experimental: Solutions of the test compound 7e were prepared in DMSO at various concentrations. A suspension of growing S. aureus to be studied in Muller-Hinton II broth was prepared and incubated at 37 °C. An aliquot (90 µL) of this suspension was added to 10 µL of test compound solution and vortexed for 10 s. Luciferin–luciferase reagent (Yelen, France; 50 µL) was immediately added to this mixture, and luminescent signal quantified with an Infinite M200 microplate reader (Tecan) over a 30 min period; ATP concentration was quantified using internal sample addition. A similar procedure was used for the CTAB positive control.

erythrocytes = tested on: erythrocytes; parameters: method as in PMID 11806717; conditions: hemolytic activity; read-out: EC50 for hemoglobin release from erythrocytes; cited from earlier work
[18] = tested on: B lymphoma Wehi-231 cells; parameters: method as in PMID 19883637; conditions: read-out: EC50 for propidium iodide entry; cited from earlier work
[19] = tested on: HEK293 human embryonic kidney cells; test: Cytotoxicity assay on HEK293; type: cell-based; conditions: concentration at 50% cytotoxicity on HEK293; mean (n = 2); top dose tested 32 μg/mL
Experimental: as §5

C[C@H](CCC(=O)NCCCNCCCCCCCCCCNCCCNC(=O)CC[C@@H](C)[C@H]1CC[C@H]2[C@@H]3C[C@H](O)[C@@H]4C[C@H](O)CC[C@]4(C)[C@H]3CC[C@]12C)[C@H]1CC[C@H]2[C@@H]3C[C@H](O)[C@@H]4C[C@H](O)CC[C@]4(C)[C@H]3CC[C@]12C.O=C(O)C(F)(F)F.O=C(O)C(F)(F)F [Compound 7e, N^1,N^10-Bis(3-((R)-4-((3R,5R,6S,8S,9S,10R,13R,14S,17R)-3,6-dihydroxy-10,13-dimethylhexadecahydro-1H-cyclopenta[a]phenanthren-17-yl)pentanamido)propyl)decane-1,10-diaminium 2,2,2-trifluoroacetate]
real time growth inhibition (OD 590 nm) [1]: inhibited all three strains | time after which growth was exhibited (S. aureus ATCC 25923 [2]; S. aureus (strain not stated), BHI, lowest tested concentration 1.6 μM (2 µg/mL)): 13 h | real time growth inhibition (OD 590 nm) (S. aureus ATCC 25923 [2]; S. aureus ATCC 25923, BHI, 1 to 19 h, at 3.2 μM (4 µg/mL) and 12.7 μM (16 µg/mL)): inhibited all three strains | MIC ([3]; Candida albicans, ATCC90028, read-out: MIC C.a., Candida albicans ATCC 90028): ≤ 0.2 µM | time after which growth was exhibited ([4]; B. cereus, BHI, lowest tested concentration 1.6 μM (2 µg/mL)): 10 h | real time growth inhibition (OD 590 nm) ([4]; Bacillus cereus ATCC 11778, BHI, 1 to 19 h, at 3.2 μM (4 µg/mL) and 12.7 μM (16 µg/mL)): inhibited all three strains | MBC/MIC ratio ([5]; S. aureus MRSA (CF-Marseille) (one of three Gram-positive strains)): approximately one | minimum bactericidal concentration (MBC) ([5]; S. aureus MRSA (CF-Marseille), stated relative to MIC (3.2 μM, 4 μg/mL)): The same values were observed | enhancement of antibiotic activity of erythromycin (E. coli ATCC 25922): No enhancement was observed | MIC ([6]; Acinetobacter baumannii, ATCC19606, read-out: MIC A.b.): > 25 µM | IC50 ([7]; HEK293 human embryonic kidney cells): > 25 µM | MIC ([8]; Pseudomonas aeruginosa, ATCC27853, read-out: MIC P.a.): > 25 µM | MIC ([9]; Cryptococcus neoformans, ATCC208821, read-out: MIC C.n.): 0.8 µM | enhancement of antibiotic activity of doxycycline (P. aeruginosa ATCC 27853): No enhancement was observed | MIC ([10]; Klebsiella pneumoniae, ATCC700603, read-out: MIC K.p.): > 25 µM | MIC [11]: ≤ 0.2 µM | MIC [12]: 3.2 µM and 4 µg/mL | MBC/MIC ratio ([13]; Bacillus cereus ATCC 11778 (one of three Gram-positive strains)): approximately one | minimum bactericidal concentration (MBC) ([13]; Bacillus cereus ATCC 11778, stated relative to MIC (3.2 μM, 4 μg/mL)): The same values were observed | Hemolysis (HC10) (human red blood cells): >25 µM | MIC ([14]; Escherichia coli, ATCC25922, read-out: MIC E.c.): > 25 µM | MIC (S. aureus ATCC 25923 [15]): 1.6 µM and 2 µg/mL | MBC/MIC ratio (S. aureus ATCC 25923 [16]; S. aureus ATCC 25923 (one of three Gram-positive strains)): approximately one | minimum bactericidal concentration (MBC) (S. aureus ATCC 25923 [16]; S. aureus ATCC 25923, stated relative to MIC (1.6 μM, 2 μg/mL)): The same values were observed | MIC [17]: 3.2 µM and 4 µg/mL | ATP release (extracellular ATP, bioluminescence) (S. aureus): inability of 7e to induce ATP release; also recorded: failed to cause ATP release

CC(C)[C@@H](CC[C@@H](C)[C@H]1CC[C@H]2[C@@H]3[C@H](O)C[C@H]4C[C@@H](NCCCNCCCCN)CC[C@]4(C)[C@H]3CC[C@]12C)OS(=O)(=O)O [Compound 1, Squalamine, reference compound]
EC50 (erythrocytes): 80 µM | MIC ([3]; ATCC90028, Candida albicans ATCC 90028, read-out: MIC C.a.): 4.5 µM (≈ 2.83 µg/mL) | EC50 [18]: 51 µM | MIC ([6]; ATCC19606, Acinetobacter baumannii ATCC 19606, mean (n = 2), read-out: MIC A.b.): ≤ 0.28 µM | MIC ([6]; Acinetobacter baumannii ATCC 19606, mean (n = 2), read-out: MIC A.b.): ≤0.28 µM | Cytotoxicity (IC50) [19]: lack of toxicity indicators | IC50 [7]: > 36 µM | MIC ([8]; ATCC27853, Pseudomonas aeruginosa ATCC 27853, mean (n = 2), read-out: MIC P.a.): 18 µM (≈ 11.3 µg/mL) | MIC ([9]; ATCC208821, Cryptococcus neoformans ATCC 208821, mean (n = 2), read-out: MIC C.n.): 0.56 µM (≈ 0.352 µg/mL) | MIC ([10]; ATCC700603, Klebsiella pneumoniae ATCC 700603, mean (n = 2), read-out: MIC K.p.): ≤ 0.28 µM | MIC ([10]; Klebsiella pneumoniae ATCC 700603, mean (n = 2), read-out: MIC K.p.): ≤0.28 µM | Hemolysis (HC10) (human red blood cells): >36 µM | Hemolysis (HC10) (human red blood cells; listed as squalamine): lack of toxicity indicators | MIC ([14]; ATCC25922, Escherichia coli ATCC 25922, mean (n = 2), read-out: MIC E.c.): ≤ 0.28 µM | MIC ([14]; Escherichia coli ATCC 25922, mean (n = 2), read-out: MIC E.c.): ≤0.28 µM
